Experimental data published in patent US7795226B2, “Control of radiation injury” (Biotempt B.V., priority 2006, dated 2010).

Tests used:
Assay type in all cases: in vivo
[1] = tested on: high dose LPS (E. coli 026:B6)-induced septic shock in BALB/c mice; test: high dose LPS-induced septic shock, peptide administered twice; settings: peptide twice (t = 2 and 24 hours) 5 mg/kg
Summary of the method: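 Female BALB/c mice (8–12 weeks) given high-dose LPS (E. coli 026:B6) i.p., predetermined to cause 80–100% mortality in 24–72 h. Peptides in PBS at 5 mg/kg i.p. at 2 and 24 h after LPS; sickness scored 0–5 or dead.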

[2] = tested on: LPS (E. coli 026:B6)-induced sepsis in BALB/c mice; test: endotoxin shock survival after early or late treatment with peptide
Protocol: Mice used in sepsis or septic shock experiments: Female BALB/c mice of eight to twelve weeks of age were used for all experiments. The animals were bred in our facility under specific pathogen-free conditions according to the protocols described in the […] of European Laboratory Animal Science Associations (FELASA) Working group on Animal Health (Laboratory Animals 28:1-24, 1994).
Injection protocols: For the endotoxin model, BALB/c mice were injected i.p. with 150-300 μg LPS (E. coli 026:B6; Difco Lab., Detroit, Mich., USA). Control groups were treated with PBS i.p. only. To test the effect of peptides, they were dissolved in PBS and injected i.p. at predetermined points in time after LPS treatment.
A further set of septic shock experiments were set up to determine which of the peptides LQG, LQGV (SEQ ID NO:117), VLPALP (SEQ ID NO:140), VLPALPQ (SEQ ID NO:143), MTR, MTRV (SEQ ID NO:119), VVC or AQGV (SEQ ID NO:120) under study were most suited to be used early and/or late after or throughout the development of shock. For determining the percent of endotoxin shock survival after late or early treatment with peptide, BALB/c mice were injected i.p. with 300 μg LPS (E. coli 026:B6; Difco Lab., Detroit, Mich. USA), predetermined to be leading to 100% mortality in 48 hours without peptide treatment.
To evaluate the effect of peptide treatment at an early or late point in time of development of shock, mice were treated at two hours or at 24 hours after LPS injection by i.p. injection with test peptide at 5 mg/kg bodyweight. The mice were followed for 84 hours instead of for 48 hours in the earlier experiments.

[3] = tested on: renal ischemia reperfusion in mice; test: mouse renal ischemia reperfusion test; design: BUN after 25 minutes renal ischemia, mean / Urea levels in dose-response experiment: unit not given here; settings: for BUN concentration versus the PBS control group (in words) / mortality versus the PBS control group (in words) / BUN after 25 minutes renal ischemia, mean: 5 mg/kg i.v.; for mortality at 72 hours post-reperfusion: 5 mg/kg i.v. before and after 25 minutes clamping, dead/total
Protocol: Six oligopeptides (i.e., A: LAGV (SEQ ID NO:121); B: AQGV (SEQ ID NO:120); C: LAG; D: AQG; E: MTR; and F: MTRV (SEO ID NO:119)) were tested and compared with PBS (control) in a double blind animal study for each peptide's relative ability to aid recovery in a mouse renal ischemia reperfusion test. In this test, the mice were anesthetized, and one kidney from each mouse was removed. The other kidney was tied off for 25 minutes, and the serum urea levels were allowed to increase. Both before and after tying off, each of the separate peptides was administered to thirty (30) different mice (5 mg oligopeptide / kg body mass intravenously), after which, the mortality of the mice was determined for each oligopeptide as well as was the BUN concentration at two hours, 24 hours and 72 hours. The results are shown in Table 3 below (excluding the results of peptide A (LAGV (SEQ ID NO:121)) obtained in Example 3).
Under inhalation anesthesia, the left kidney with its artery and vein was isolated and occluded for 25 minutes using a microvascular clamp. During surgery, animals were placed on a heating pad to maintain body temperature at 37° C. Five minutes before placing the clamp, and five minutes before releasing the clamp, 5 mg/kg of peptide dissolved in 0.1 mL of sterile saline, was administered intravenously. After reperfusion of the left kidney, the right kidney was removed. Kidney function was assessed by measuring blood urea nitrogen before clamping, and at 2, 24, and 72 hours after reperfusion.
Peptides were tested at 0.3, 1, 3, 10 and 30 mg/kg dosages given as described in Example 3. P values (calculated by Mann Whitney U-test (SPSS for Windows)) of serum urea levels of PBS compared to peptide D groups at 72 hours post-clamping were at 0.3 mg/kg 0.001, at 1 mg/kg 0.009, at 3 mg/kg 0.02, at 10 mg/kg 0.000, and at 30 mg/kg 0.23; for peptide B (SEQ ID NO:120) groups, these P-values were 0.88, 0.054, 0.000, 0.001 and 0.003.

[4] = 0 hours, peptide 5 mg/kg 2 hours after LPS
[5] = 0 hours, peptide 5 mg/kg 24 hours after LPS
[6] = 14 hours, peptide 5 mg/kg 2 hours after LPS
[7] = 14 hours, peptide 5 mg/kg 24 hours after LPS
[8] = 24 hours, peptide 5 mg/kg 2 hours after LPS
[9] = 24 hours, peptide 5 mg/kg 24 hours after LPS
[10] = 48 hours, peptide 5 mg/kg 2 hours after LPS
[11] = 48 hours, peptide 5 mg/kg 24 hours after LPS
[12] = 84 hours, peptide 5 mg/kg 2 hours after LPS
[13] = 84 hours, peptide 5 mg/kg 24 hours after LPS
[14] = 5 mg/kg given both early (2 hours) or late (24 hours)

MTRV
mice with sickness score 1, effect at t = 48 hours ([1]; LPS dose 10.5): 2 | mice with sickness score 2, effect at t = 24 hours ([1]; LPS dose 10.5): 1 | mice with sickness score 2, effect at t = 48 hours ([1]; LPS dose 10.5): 3 | mice with sickness score 3, effect at t = 24 hours ([1]; LPS dose 10.5): 1 | mice with sickness score 4, effect at t = 24 hours ([1]; LPS dose 10.5): 3 | mice with sickness score 1, effect at t = 48 hours ([1]; LPS dose 11): 6 | mice with sickness score 2, effect at t = 24 hours ([1]; LPS dose 11): 4 | mice with sickness score 4, effect at t = 24 hours ([1]; LPS dose 11): 2 | % Survival [2, 4]: 100% | % Survival [2, 5]: 100% | % Survival [2, 6]: 100% | % Survival [2, 7]: 100% | % Survival [2, 8]: 100% | % Survival [2, 9]: 100% | % Survival [2, 10]: 50% | % Survival [2, 11]: 100% | % Survival [2, 12]: 30% | % Survival [2, 13]: 100% | BUN concentration versus the PBS control group (in words) [3]: reduced BUN concentration | mortality versus the PBS control group (in words) [3]: significant reduction in mortality | mortality at 72 hours post-reperfusion [3]: 2/10 | BUN after 25 minutes renal ischemia, mean ([3]; 2 hours after reperfusion): 15.09 | BUN after 25 minutes renal ischemia, mean ([3]; 24 hours after reperfusion): 34.57 | BUN after 25 minutes renal ischemia, mean ([3]; 72 hours after reperfusion): 39.8375 | BUN after 25 minutes renal ischemia, mean ([3]; t = 0 hr (before clamping)): 7.463

AQGV
mice with sickness score 1, effect at t = 24 hours ([1]; LPS dose 10.5): 2 | mice with sickness score 1, effect at t = 48 hours ([1]; LPS dose 10.5): 5 | mice with sickness score 2, effect at t = 24 hours ([1]; LPS dose 10.5): 3 | mice with sickness score 1, effect at t = 24 hours ([1]; LPS dose 11): 2 | mice with sickness score 1, effect at t = 48 hours ([1]; LPS dose 11): 6 | mice with sickness score 2, effect at t = 24 hours ([1]; LPS dose 11): 4 | % Survival [2, 4]: 100% | % Survival [2, 5]: 100% | clinical signs of shock at 84 hours after LPS-treatment (in words) [2, 14]: no remaining clinical signs of shock | survival at 84 hours after LPS-treatment [2, 14]: 100% | % Survival [2, 6]: 100% | % Survival [2, 7]: 100% | % Survival [2, 8]: 100% | % Survival [2, 9]: 100% | % Survival [2, 10]: 100% | % Survival [2, 11]: 100% | % Survival [2, 12]: 100% | % Survival [2, 13]: 100% | Mortality in dose-response experiment ([3]; 0.3 mg/kg, 24 hours): 0-9 | Urea levels in dose-response experiment ([3]; 0.3 mg/kg, 24 hours): 62.4 | Mortality in dose-response experiment ([3]; 0.3 mg/kg, 72 hours): 2-10 | Urea levels in dose-response experiment ([3]; 0.3 mg/kg, 72 hours): 86.7 | Mortality in dose-response experiment ([3]; 1.0 mg/kg, 24 hours): 0-10 | Urea levels in dose-response experiment ([3]; 1.0 mg/kg, 24 hours): 50.0 | Mortality in dose-response experiment ([3]; 1.0 mg/kg, 72 hours): 1-8 | Urea levels in dose-response experiment ([3]; 1.0 mg/kg, 72 hours): 52.6 | Mortality in dose-response experiment ([3]; 3.0 mg/kg, 24 hours): 1-10 | Urea levels in dose-response experiment ([3]; 3.0 mg/kg, 24 hours): 37.4 | Mortality in dose-response experiment ([3]; 3.0 mg/kg, 72 hours): 0-10 | Urea levels in dose-response experiment ([3]; 3.0 mg/kg, 72 hours): 19.6 | BUN concentration versus the PBS control group (in words) [3]: reduced BUN concentration | mortality versus the PBS control group (in words) [3]: significant reduction in mortality | mortality at 72 hours post-reperfusion [3]: 0/10 | Mortality in dose-response experiment ([3]; 10.0 mg/kg, 24 hours): 0-10 | Urea levels in dose-response experiment ([3]; 10.0 mg/kg, 24 hours): 41.2 | Mortality in dose-response experiment ([3]; 10.0 mg/kg, 72 hours): 0-8 | Urea levels in dose-response experiment ([3]; 10.0 mg/kg, 72 hours): 37.1 | Mortality in dose-response experiment ([3]; 30.0 mg/kg, 24 hours): 0-8 | Urea levels in dose-response experiment ([3]; 30.0 mg/kg, 24 hours): 47.8 | Mortality in dose-response experiment ([3]; 30.0 mg/kg, 72 hours): 3-10 | Urea levels in dose-response experiment ([3]; 30.0 mg/kg, 72 hours): 38.0 | BUN after 25 minutes renal ischemia, mean ([3]; 2 hours after reperfusion): 16.62 | BUN after 25 minutes renal ischemia, mean ([3]; 24 hours after reperfusion): 26.36 | BUN after 25 minutes renal ischemia, mean ([3]; 72 hours after reperfusion): 22.31 | BUN after 25 minutes renal ischemia, mean ([3]; t = 0 hr (before clamping)): 9.713
